# Key:
# testosterone-induced BPH = assay: Treatment of testosterone-induced BPH in rats; type: in vivo, rat; details: for Decrease in volume of total prostate / Decrease in volume of ventral prostate / Decrease in weight of total prostate / Decrease in weight of ventral prostate: % of the increase preinduced with testosterone
# Procedure: Treatment of Testosterone-Induced BPH in Rats
# Male rats are implanted with catheters and receive 18.75 mg per rat of testosterone, subcutaneously at D-4.
# From day D0 to day D21, they receive rimonabant daily, at the dose of either 10 mg/kg per os, or of 30 mg/kg per os.
# At day D22, the animals are sacrificed and their prostate is analyzed.
# This decrease is evaluated as % of the increase preinduced with testosterone.
# [1] = tested on: BPH in spontaneously hypertensive rats; assay: Treatment of BPH in spontaneously hypertensive rats (SHR), qualitative histological study of the prostate lobes; type: in vivo, rat; details: SHR rats treated for 28 days, from 10 mg/kg onward
# Procedure: Treatment of BPH in Spontaneously Hypertensive Rats
# The spontaneously hypertensive rat (SHR) model as described by Golomb et al., J. Androl. (2000), 21(1), 58-64 and Matituahou et al., J. Androl. (2003) 24(2), 263-9 is used.
# A qualitative histological study of the prostate lobes is carried out on untreated SHR rats and on rats treated for 28 days with 10 mg/kg or 30 mg/kg of rimonabant.
# [2] = rimonabant 10 mg/kg/d per os, D0 to D21
# [3] = rimonabant 30 mg/kg/d per os, D0 to D21
structure (smiles),measurement,setting,value
C[C@]12CC[C@H]3[C@@H](CCC4=CC(=O)CC[C@@]43C)[C@@H]1CC[C@@H]2O [testosterone],Increase in weight and volume of the total prostate and of the ventral prostate,"testosterone-induced BPH; pretreatment with testosterone 18.75 mg per rat, subcutaneously at D-4",approximately 35%
"Cc1c(C(=O)NN2CCCCC2)nn(-c2ccc(Cl)cc2Cl)c1-c1ccc(Cl)cc1 [Rimonabant, N-piperidino-5-(4-chlorophenyl)-1-(2,4-dichlorophenyl)-4-methylpyrazole-3-carboxamide]",Weight and volume of the prostate,"testosterone-induced BPH; chronic treatment with rimonabant, 10 or 30 mg/kg per os daily, D0 to D21",significant decrease
same,Decrease in volume of total prostate,testosterone-induced BPH; [2],64%
same,Decrease in volume of ventral prostate,testosterone-induced BPH; [2],88%
same,Decrease in weight of total prostate,testosterone-induced BPH; [2],54%
same,Decrease in weight of ventral prostate,testosterone-induced BPH; [2],87%
same,Decrease in volume of total prostate,testosterone-induced BPH; [3],87%
same,Decrease in volume of ventral prostate,testosterone-induced BPH; [3],100%
same,Decrease in weight of total prostate,testosterone-induced BPH; [3],73%
same,Decrease in weight of ventral prostate,testosterone-induced BPH; [3],95%
same,Histology of the ventral prostate lobes,[1],the tissues are normal and non-hypertrophied

# Reference: US20090124643A1, “Use of a Cannabinoid CB1 Receptor Antagonist for Preparation of Drugs Useful for the Prevention and Treatment of Benign Prostatic Hypertrophy” (SANOFI-AVENTIS, priority 2006, published 2009)
